{"source": "patent US6410530B1", "about": "“Substituted 1,2,3,4-tetrahydronaphthalene derivatives” (AstraZeneca AB, priority 1996, dated 2002)"}
{"smiles": "CN1CCN(c2cccc3c2CC[C@H](NC(=O)c2ccc(N4CCOCC4)cc2)C3)CC1", "note": "[Example 119, (S)-N-[5-(4-Methylpiperazin-1-yl)-1,2,3,4-tetrahydro-2-naphthyl]-4-morpholinobenzamide]", "melting point": "129 to 131 °C"}
{"smiles": "CCCCOc1ccc(C(=O)N[C@H]2CCc3cccc(N4CCN(C)CC4)c3C2)cc1", "note": "[Example 71, (S)-N-[8-(4-Methylpiperazin-1-yl)-1,2,3,4-tetrahydro-2-naphthyl]-4-butoxybenzamide]", "melting point": "190 to 192 °C"}
{"smiles": "CCc1ccc(-c2ccc(C(=O)N[C@@H]3CCc4cccc(N5CCN(C)CC5)c4C3)cc2)cc1", "note": "[Example 84, (R)-N-[8-(4-Methylpiperazin-1-yl)-1,2,3,4-tetrahydro-2-naphthyl]-4-(4-ethylphenyl)benzamide]", "melting point": "234 to 235 °C"}
{"smiles": "CCCCCCN1CCN(c2cccc3c2C[C@H](NC(C)=O)CC3)CC1", "note": "[Example 33, (R)-N-[8-(4-Hexylpiperazin-1-yl)-1,2,3,4-tetrahydro-2-naphthyl]acetamide]", "melting point": "117 to 118 °C"}
{"smiles": "CN1CCN(c2cccc3c2C[C@H](NC(=O)c2ccc(C(=O)N4CCOCC4)cc2)CC3)CC1", "note": "[Example 129, (R)-N-[8-(4-Methylpiperazin-1-yl)-1,2,3,4-tetrahydro-2-naphthyl]-4-morpholinocarbonylbenzamide]", "melting point": "124 to 127 °C"}
{"smiles": "CN1CCN(c2cccc3c2C[C@H](NC(=O)c2csc(-c4ccncc4)n2)CC3)CC1", "note": "[Example 47, (R)-N-[8-(4-Methylpiperazin-1-yl)-1,2,3,4-tetrahydro-2-naphthyl]-2-(4-pyridyl)thiazole-4-carboxamide]", "melting point": "187 to 188 °C"}
{"smiles": "CCCCOc1ccc(C(=O)N[C@@H]2CCc3cccc(C4CCN(C)CC4)c3C2)cc1", "note": "[Example 100, (R)-N-[8-(1-Methylpiperidin-4-yl)-1,2,3,4-tetrahydro-2-naphthyl]-4-butoxybenzamide]", "melting point": "162 to 164 °C"}
{"smiles": "CN1CCN(c2cccc3c2C[C@@H](NC(=O)c2ccc(C(F)(F)F)cc2)CC3)CC1", "note": "[Example 66, (S)-N-[8-(4-Methylpiperazin-1-yl)-1,2,3,4-tetrahydro-2-naphthyl]-4-trifluoromethylbenzamide]", "melting point": "202 to 204 °C"}
{"smiles": "CCCN1CCN(c2cccc3c2C[C@H](NC(C)=O)CC3)CC1", "note": "[Example 24, (R)-N-[8-(4-Propylpiperazin-1-yl)-1,2,3,4-tetrahydro-2-naphthyl]acetamide]", "melting point": "139 to 140 °C"}
{"smiles": "COc1ccc(C(=O)N[C@@H]2CCc3cccc(N4CCN(C)CC4)c3C2)cc1", "note": "[Example 49, (R)-N-[8-(4-Methylpiperazin-1-yl)-1,2,3,4-tetrahydro-2-naphthyl]-4-methoxybenzamide]", "melting point": "186 to 187 °C"}
{"smiles": "CN1CCN(c2cccc3c2C[C@H](N(C)C(=O)c2ccc(C(F)(F)F)cc2)CC3)CC1", "note": "[Example 122, (R)-N-Methyl-N-[8-(4-methylpiperazin-1-yl)-1,2,3,4-tetrahydro-2-naphthyl]-4-trifluoromethylbenzamide]", "melting point": "123 to 125 °C"}
{"smiles": "CN1CCN(c2cccc3c2C[C@H](NC(=O)c2ccc(N4CCSCC4)cc2)CC3)CC1", "note": "[Example 125, (R)-N-[8-(4-Methylpiperazin-1-yl)-1,2,3,4-tetrahydro-2-naphthyl]-4-thiomorpholinobenzamide]", "melting point": "190 to 191 °C"}
{"smiles": "CC(=O)N[C@@H]1CCc2cccc(N3CCN(C)CC3)c2C1", "melting point": "152 to 154 °C"}
{"smiles": "CN1CCN(c2cccc3c2C[C@H](NC(=O)c2ccc(Cl)cc2)CC3)CC1", "note": "[Example 74, (R)-N-[8-(4-Methylpiperazin-1-yl)-1,2,3,4-tetrahydro-2-naphthyl]-4-chlorobenzamide]", "melting point": "204 to 205 °C"}
{"smiles": "CN1CCN(c2cccc3c2C[C@H](NC(=O)c2cccc(O)c2)CC3)CC1", "note": "[Example 88, (R)-N-[8-(4-Methylpiperazin-1-yl)-1,2,3,4-tetrahydro-2-naphthyl]-3-hydroxybenzamide]", "melting point": "117 °C (dec.)"}
{"smiles": "Cc1ccccc1C(=O)N[C@@H]1CCc2cccc(N3CCN(C)CC3)c2C1", "note": "[Example 90, (R)-N-[8-(4-Methylpiperazin-1-yl)-1,2,3,4-tetrahydro-2-naphthyl]-2-methylbenzamide]", "melting point": "179 to 180 °C"}
{"smiles": "CN1CCN(c2cccc3c2C[C@H](NC(=O)c2ccccc2)CC3)CC1", "note": "[Example 48, (R)-N-[8-(4-Methylpiperazin-1-yl)-1,2,3,4-tetrahydro-2-naphthyl]benzamide]", "melting point": "195 to 196 °C"}
{"smiles": "CN1CCN(c2cccc3c2C[C@H](NC(=O)c2ccc(N4CCOCC4)cc2)CC3)CC1", "note": "[Example 54, (R)-N-[8-(4-Methylpiperazin-1-yl)-1,2,3,4-tetrahydro-2-naphthyl]-4-morpholinobenzamide]", "melting point": "230 to 231 °C"}
{"smiles": "CCN1CCN(c2cccc3c2C[C@H](NC(C)=O)CC3)CC1", "melting point": "142 to 143 °C"}
{"smiles": "CN1CCN(c2cccc3c2C[C@H](NC(=O)c2csc(-c4ccccc4)n2)CC3)CC1", "note": "[Example 46, (R)-N-[8-(4-Methylpiperazin-1-yl)-1,2,3,4-tetrahydro-2-naphthyl]-2-phenylthiazole-4-carboxamide]", "melting point": "175 to 176 °C"}
{"smiles": "CN1CCN(c2cccc3c2C[C@H](NC(=O)C(F)(F)F)CC3)CC1", "melting point": "158 to 159 °C"}
{"smiles": "CN1CCN(c2cccc3c2C[C@H](NC(=O)c2ccccc2O)CC3)CC1", "note": "[Example 92, (R)-N-[8-(4-Methylpiperazin-1-yl)-1,2,3,4-tetrahydro-2-naphthyl]-2-hydroxybenzamide]", "melting point": "87 °C (dec.)"}
{"smiles": "CN1CCN(c2cccc3c2C[C@H](NC(=O)c2ccc(OS(C)(=O)=O)cc2)CC3)CC1", "note": "[Example 67, (R)-N-[8-(4-Methylpiperazin-1-yl)-1,2,3,4-tetrahydro-2-naphthyl]-4-methylsulfonyloxybenzamide]", "melting point": "199 to 200 °C"}
{"smiles": "CN1CCC(c2cccc3c2C[C@H](NC(=O)c2ccc(C(F)(F)F)cc2)CC3)CC1", "note": "[Example 99, (R)-N-[8-(1-Methylpiperidine-4yl)-1,2,3,4-tetrahydro-2-naphthyl]-4-trifluoromethylbenzamide]", "melting point": "163 to 166 °C"}
{"smiles": "CN1CCN(c2cccc3c2C[C@H](NC(=O)c2ccc(-n4cccc4)cc2)CC3)CC1", "note": "[Example 78, (R)-N-[8-(4-Methylpiperazin-1-yl)-1,2,3,4-tetrahydro-2-naphthyl]-4-(1H-pyrrol-1-yl)benzamide]", "melting point": "245 to 247 °C"}
{"smiles": "CCCCCN1CCN(c2cccc3c2C[C@H](NC(C)=O)CC3)CC1", "note": "[Example 30, (R)-N-[8-(4-Pentylpiperazin-1-yl)-1,2,3,4-tetrahydro-2-naphthyl]acetamide]", "melting point": "119 to 120 °C"}
{"smiles": "O=C(N[C@@H]1CCc2cccc(N3CCNCC3)c2C1)c1ccc(N2CCOCC2)cc1", "note": "[Example 53, (R)-N-[8-(Piperazin-1-yl)-1,2,3,4-tetrahydro-2-naphthyl]-4-morpholinobenzamide]", "melting point": "202 to 203 °C"}
{"smiles": "CN1CCN(c2cccc3c2C[C@H](NC(=O)c2ccc(C4CCCCC4)cc2)CC3)CC1", "note": "[Example 63, (R)-N-[8-(4-Methylpiperazin-1-yl)-1,2,3,4-tetrahydro-2-naphthyl]-4-cyclohexylbenzamide]", "melting point": "224 to 226 °C"}
{"smiles": "CN1CCC(c2cccc3c2C[C@H](NC(=O)c2ccc(N4CCOCC4)cc2)CC3)CC1", "note": "[Example 101, (R)-N-[8-(1-Methylpiperidin-4-yl)-1,2,3,4-tetrahydro-2-naphthyl]-4-morpholinobenzamide]", "melting point": "196 to 198 °C"}
{"smiles": "CN1CCN(c2cccc3c2C[C@H](NC(=O)c2ccc(C(=O)c4ccccc4)cc2)CC3)CC1", "note": "[Example 76, (R)-N-[8-(4-Methylpiperazin-1-yl)-1,2,3,4-tetrahydro-2-naphthyl]-4-benzoylbenzamide]", "melting point": "194 to 195 °C"}
{"smiles": "CCCC(=O)N[C@@H]1CCc2cccc(N3CCN(C)CC3)c2C1", "melting point": "131 to 132 °C"}
{"smiles": "CN1CCN(c2cccc3c2C[C@H](NC(=O)c2cccc(Oc4ccccc4)c2)CC3)CC1", "note": "[Example 87, (R)-N-[8-(4-Methylpiperazin-1-yl)-1,2,3,4-tetrahydro-2-naphthyl]-3-phenoxybenzamide]", "melting point": "136 to 137 °C"}
{"smiles": "CN1CCN(c2cccc3c2C[C@H](NC(=O)c2ccc(-c4ccc(O)cc4)cc2)CC3)CC1", "note": "[Example 85, (R)-N-[8-(4-Methylpiperazin-1-yl)-1,2,3,4-tetrahydro-2-naphthyl]-4-(4-hydroxyphenyl)benzamide]", "melting point": "261 to 262 °C"}
{"smiles": "CN1CCN(c2cccc3c2C[C@H](NC(=O)c2ccc(-c4ccccc4)cc2)CC3)CC1", "note": "[Example 44, (R)-N-[8-(4-Methylpiperazin-1-yl)-1,2,3,4-tetrahydro-2-naphthyl]-1,1′-biphenyl-4-carboxamide]", "melting point": "232 to 233 °C"}
{"smiles": "CN1CCN(c2cccc3c2C[C@H](NC(=O)c2ccc(C#N)cc2)CC3)CC1", "note": "[Example 50, (R)-N-[8-(4-Methylpiperazin-1-yl)-1,2,3,4-tetrahydro-2-naphthyl]-4-cyanobenzamide]", "melting point": "184 to 186 °C"}
{"smiles": "CN1CCN(c2cccc3c2C[C@H](NC(=O)c2ccc(Cc4ccccc4)cc2)CC3)CC1", "note": "[Example 75, (R)-N-[8-(4-Methylpiperazin-1-yl)-1,2,3,4-tetrahydro-2-naphthyl]-4-benzylbenzamide]", "melting point": "191 to 192 °C"}
{"smiles": "CCCN1CCN(c2cccc3c2C[C@H](NC(=O)c2ccc(N4CCOCC4)cc2)CC3)CC1", "note": "[Example 57, (R)-N-[8-(4-Propylpiperazin-1-yl)-1,2,3,4-tetrahydro-2-naphthyl]-4-morpholinobenzamide]", "melting point": "183 to 185 °C"}
{"smiles": "CCc1ccc(C(=O)N[C@@H]2CCc3cccc(N4CCN(C)CC4)c3C2)cc1", "note": "[Example 69, (R)-N-[8-(4-Methylpiperazin-1-yl)-1,2,3,4-tetrahydro-2-naphthyl]-4-ethylbenzamide]", "melting point": "177 to 178 °C"}
{"smiles": "CN1CCN(c2cccc3c2C[C@H](NC(=O)C2CCCCC2)CC3)CC1", "note": "[Example 36, (R)-N-[8-(4-Methylpiperazin-1-yl)-1,2,3,4-tetrahydro-2-naphthyl]cyclohexanecarboxamide]", "melting point": "183 to 184 °C"}
{"smiles": "CCCCN1CCN(c2cccc3c2C[C@H](NC(C)=O)CC3)CC1", "note": "[Example 27, (R)-N-[8-(4-Butylpiperazin-1-yl)-1,2,3,4-tetrahydro-2-naphthyl]acetamide]", "melting point": "118 to 120 °C"}
{"smiles": "CN1CCN(c2cccc3c2C[C@H](NC(=O)Cc2ccccc2)CC3)CC1", "note": "[Example 80, (R)-N-[8-(4-Methylpiperazin-1-yl)-1,2,3,4-tetrahydro-2-naphthyl]phenylacetamide]", "melting point": "151 to 152 °C"}
